{"source": "patent US5260335A", "about": "“Pharmaceutical preparations for the treatment of inflammatory diseases” (Plantamed Arzneimittel GmbH, priority 1991, dated 1993)", "key": {"[1]": {"test_system": "bronchial obstruction after allergen inhalation", "assay": "Inhibition of bronchial obstruction after allergen (ovalbumin) inhalation in sensitized guinea pigs", "type": "in vivo", "settings": "for activity in preventing bronchial obstruction after inhalation of an allergen (in words): methyl gallate, gallic acid and quercetin compared", "method": "Male white guinea pigs were sensitized by means of intraperitoneal and intramuscular injection of ovalbumin according to the well-known methods. […] All the experiments were conducted according to a randomized evaluation record: Groups of 10 to 14 animals were divided into two sub-groups and either treated with the material to be studied or with control solutions. […] Ovalbumin, PAF, histamine and acetylcholine were administered as an aerosol atomized by ultrasound. Spontaneously breathing animals were placed in a dual-chamber body plethysmograph in which the two chambers were separated around the head of the animals by a rubber collar filled with water. Changes in volume in the two chambers were measured by means of pressure transfer systems. The degree of bronchial obstruction was determined by means of the parameter, \"compressed air\"."}, "[2]": {"test_system": "PAF-induced bronchial obstruction", "assay": "Inhibition of PAF-induced bronchial reaction (successive inhalation of histamine, PAF and histamine)", "type": "in vivo, guinea pigs", "method": "All the experiments were conducted according to a randomized evaluation record:\nGroups of 10 to 14 animals were divided into two sub-groups and either treated with the material to be studied or with control solutions.\n1 hour, 12 hours, 4 or 7 days after the pretreatment, the animals were exposed to various inhalation stimuli. […] Ovalbumin, PAF, histamine and acetylcholine were administered as an aerosol atomized by ultrasound.\nSpontaneously breathing animals were placed in a dual-chamber body plethysmograph in which the two chambers were separated around the head of the animals by a rubber collar filled with water. Changes in volume in the two chambers were measured by means of pressure transfer systems. The degree of bronchial obstruction was determined by means of the parameter, \"compressed air\".\nThe action of the plant extracts or of the compounds on the PAF-induced reaction was studied by means of the successive inhalation of histamine, PAF and histamine:\nOne group of animals was divided into two sub-groups and both sub-groups inhaled histamine in a concentration causing a moderate bronchial obstruction. One hour later, one group was given the substances to be studied, the other group was given the solvent alone. Both groups were subjected 12 hours later to a stimulus by means of the successive inhalation of PAF and histamine with 1 μg PAF at first and, 60 minutes later, the same dose of histamine being given as before."}}}
{"molecule": "O=C(OC1CC(OC(=O)c2cc(O)c(O)c(O)c2)(C(=O)O)CC(OC(=O)c2cc(O)c(O)c(O)c2)C1OC(=O)c1cc(O)c(O)c(O)c1)c1cc(O)c(O)c(O)c1", "note": "(single isomer, unassigned) [tetragalloylquinic acid]", "values": [{"measurement": "% inhibition of bronchial obstruction after allergen inhalation, 1st stimulus", "setting": "[1]; 5 mg/kg", "result": "86 ± 24", "unit": "%"}, {"measurement": "% inhibition of bronchial obstruction after allergen inhalation, 2nd stimulus", "setting": "[1]; 5 mg/kg", "result": "57 ± 79", "unit": "%"}, {"measurement": "inhibition of bronchial reactions to an allergen stimulus", "setting": "[1]; oral dose of 5 mg/kg", "result": "86±24", "unit": "%"}, {"measurement": "% inhibition of bronchial obstruction after PAF inhalation", "setting": "[2]; 5 mg/kg", "result": "60 ± 43", "unit": "%"}, {"measurement": "inhibition of PAF-induced bronchial reaction", "setting": "[2]; oral dose of 5 mg/kg", "result": "about 60%"}]}
{"molecule": "O=C(O)c1cc(O)c(O)c(O)c1", "note": "[Gallic acid, gallic acid]", "values": [{"measurement": "% inhibition of bronchial obstruction after allergen inhalation, 1st stimulus", "setting": "[1]; 45 mg/kg", "result": "37 ± 35", "unit": "%"}, {"measurement": "% inhibition of bronchial obstruction after allergen inhalation, 2nd stimulus", "setting": "[1]; 45 mg/kg", "result": "40 ± 31", "unit": "%"}, {"measurement": "activity in preventing bronchial obstruction after inhalation of an allergen (in words)", "setting": "[1]", "result": "about the same activity"}]}
{"molecule": "COC(=O)c1cc(O)c(O)c(O)c1", "note": "[Methyl gallate, methyl gallate]", "values": [{"measurement": "% inhibition of bronchial obstruction after allergen inhalation, 1st stimulus", "setting": "[1]; 45 mg/kg", "result": "43 ± 34", "unit": "%"}, {"measurement": "% inhibition of bronchial obstruction after allergen inhalation, 2nd stimulus", "setting": "[1]; 45 mg/kg", "result": "41 ± 24", "unit": "%"}, {"measurement": "activity in preventing bronchial obstruction after inhalation of an allergen (in words)", "setting": "[1]", "result": "about the same activity"}, {"measurement": "% inhibition of bronchial obstruction after PAF inhalation", "setting": "[2]; 45 mg/kg", "result": "65 ± 24", "unit": "%"}, {"measurement": "activity in PAF-induced bronchial obstruction (in words)", "setting": "[2]; compared with the mixture of quercetin, gallic acid and protocatechinic acid", "result": "somewhat more activity than the mixture"}]}
{"molecule": "O=c1c(O)c(-c2ccc(O)c(O)c2)oc2cc(O)cc(O)c12", "note": "[Quercetin, quercetin, reference compound]", "values": [{"measurement": "% inhibition of bronchial obstruction after allergen inhalation, 1st stimulus", "setting": "[1]; 45 mg/kg", "result": "53 ± 23", "unit": "%"}, {"measurement": "% inhibition of bronchial obstruction after allergen inhalation, 2nd stimulus", "setting": "[1]; 45 mg/kg", "result": "34 ± 33", "unit": "%"}, {"measurement": "activity in preventing bronchial obstruction after inhalation of an allergen (in words)", "setting": "[1]", "result": "about the same activity"}]}
